According to patent US4260630A, “Skin diseases” (priority 1977, dated 1981):
“Also recorded” adds a separate entry of the source.

Columns and labels:
yeast RNA = experiment: Photobinding to yeast RNA in vivo (radiolabelled drug plus 365 nm light); type: binding, Saccharomyces cerevisiae; details: for Molecules 3-CPs/μg DNA / μg 3-CPs/μg DNA: binding to RNA
Description: The radioactivity of an aliquot (0.1 ml) of this solution was measured in 5 ml of scintillation mixture (Nuclear Entreprise, Ltd., Edinburgh, Scotland, NE 250).
For the in vivo determinations stationary phase cells of the haploid wild type strain N 123 were prepared as previously described.
2 ml cell suspensions were exposed to several doses of 365 nm light. In parallel, non irradiated samples were incubated for the same periods. Immediately after incubation and/or irradiation, the samples were centrifuged and the pellet was washed 3 times with 5 ml of saline (0.9% NaCl). The washed cell pellet was resuspended in 1 ml of saline and 1 ml of 2 N NaOH was added in order to hydrolyze the RNA. The suspension was incubated overnight in the dark at room temperature, then cooled down on ice, and 2 ml of 50% TCA were added slowly. The samples were left 20 minutes on ice and the precipitated DNA was filtered on a glass fiber filter disc (Whatman GF/A, 2.1 cm diameter). In some cases the filtrate containing the acid-soluble material was kept aside, and the radioactivity of an aliquot added to 5 ml of NE250 scintillation mixture measured. The precipitate was washed 3 times with 5 ml of 5% cold TCA and 5 ml of 70% ethanol. The filters were then dried and the radioactivity measured in plastic counting vials containing 5 ml of scintillation mixture (NE 250) in a Tricarb Packard scintillation spectrophotometer.

calf thymus DNA = experiment: Photobinding to native calf thymus DNA in vitro; type: binding; details: for cpm/μg DNA / μg 3-CPs/μg DNA: 6 × 10^-5 M
Description: These determinations were done in vitro and in vivo. […] The thickness of the irradiated sample was 1 mm. After irradiation, the solution was diluted by a factor of 2, and NaCl was added to a final concentration of 1 M. The DNA was precipitated with 2 volumes of cold pure ethanol. The samples were left overnight in the cold at -20° C. The precipitate was then washed by centrifugation three times with 3 ml of 70% ethanol and redissolved in 3 ml of water. The DNA recovery was checked by determination of the optical density of the solution at 260 nm.

yeast DNA = experiment: Melting and reassociation (cross-link formation) of yeast DNA treated in vitro plus 365 nm light; type: biochemical
Description: Measurement of the melting and reassociation characteristics of yeast DNA:
Biophys. […] The fractions containing the nuclear DNA were pooled and dialysed against a 0.1 M, pH 7 phosphate buffer. […] Unirradiated samples of DNA with or without the drugs were taken as references.
The cross-links formation of the two furocoumarins with native yeast DNA was tested by measuring the denaturation and renaturation pattern.

Saccharomyces cerevisiae [1] = test system: Saccharomyces cerevisiae
Description: (§1) A wild-type strain 211-1aM (29) of Saccharomyces cerivisiae was used, and the following mutants derived from it: S24-12c rad2-20 deficient in excision repair and S25-13b rad9-4 likely to be blocked in a recombinational repair pathway; a double mutant S 2057NL-24 rad2-20 -rad9-4 clone B was obtained by tetrad analysis of a heterozygote [formula]
(§2) The media and culture conditions used were as described in D. Averbeck, E. Moustacchi, (1975) Biochim. Biophys. Acta, 395, 393-404.
(§3) 10^6 cells/ml in saline (0.9% NaCl) were treated for 30 minutes with the drugs at a final concentration of 10 μg/ml and 1.2% ethanol present.
(§4) A Philips HPW 125 culot Edison high pressure mercury lamp was used with maximal output at the wavelength 365 nm. The irradiation dose measured by actinometry was 10 J/m^2 per sec., using the following set up: 10 ml of actinometer solution (or the cell suspension, usually 1×10^6 cells/ml), stirred continuously by a magnetic stirrer, were irradiated at room temperature in an open Petri dish of 10 cm diameter at a distance of 10 cm from the center of the light bulb which was mounted horizontally. A 2 mm thick pyrex glass sheet (20×25 cm) was placed in the center of the light beam to cut out UV light of wavelength below 340 nm. Overheating was prevented either by a continuous flow of compressed air between the light bulb and the glass or by a pyrex glass water filter of 3 cm total thickness. An accumulative irradiation dose was given to the same sample. After each dose 0.1 ml of irradiated cell suspension was taken, diluted and aliquots plated.

Saccharomyces cerevisiae [2] = experiment: Induction of cytoplasmic "petite" mutations in yeast; details: compared at the same survival level (10%)
Description: as §1, §2, §3
as §4, with “Overheating was prevented either by a continuous flow of compressed air between the light bulb and the glass or by a pyrex glass water filter of 3 cm total thickness. An accumulative irradiation dose was given to the same sample. After each dose 0.1 ml of irradiated cell suspension was taken, diluted and aliquots plated.” left out

Saccharomyces cerevisiae [3] = experiment: Repair of photoinduced lesions in yeast (repair mutants, agar holding); type: cell-based
Excerpt: Biophys. Acta, 395, 393-404.
Consequently, it appears that the excision repair pathway in wild type and rad9-4 cells is essential in AHR for both compounds.

[4] = 5 min, 6.3 × 10^4 ergs.mm^-2 365 nm
[5] = 10 min, 12.6 × 10^4 ergs.mm^-2 365 nm
[6] = 15 min, 18.9 × 10^4 ergs.mm^-2 365 nm
[7] = 20 min, 25.2 × 10^4 ergs.mm^-2 365 nm
[8] = 30 min, 37.8 × 10^4 ergs.mm^-2 365 nm
[9] = 40 min, 50.4 × 10^4 ergs.mm^-2 365 nm
[10] = 60 min, 75.6 × 10^4 ergs.mm^-2 365 nm
[11] = 15 min, 18.9 × 10^4 ergs. mm^-2 365 nm
[12] = 30 min, 37.8 × 10^4 ergs. mm^-2 365 nm
[13] = 45 min, 56.7 × 10^4 ergs. mm^-2 365 nm
[14] = 60 min, 75.6 × 10^4 ergs. mm^-2 365 nm

With `CCOC(=O)c1cc2cc3ccoc3cc2oc1=O` [Example 3-CPs, 3-carboethoxypsoralen] the “Molecules 3-CPs/μg DNA” value (yeast RNA; [4]) was 0.0130 Molecules 3-CPs/μg DNA × 10^14, the “μg 3-CPs/μg DNA” value (yeast RNA; [4]) was 0.056 μg 3-CPs/μg DNA × 10^-2 and the “Molecules 3-CPs/μg DNA” value (yeast RNA; [5]) was 0.020 Molecules 3-CPs/μg DNA × 10^14. For the same compound, the “μg 3-CPs/μg DNA” value (yeast RNA; [5]) was 0.086 μg 3-CPs/μg DNA × 10^-2, the “Molecules 3-CPs/μg DNA” value (yeast RNA; [6]) was 0.026 Molecules 3-CPs/μg DNA × 10^14 and the “μg 3-CPs/μg DNA” value (yeast RNA; [6]) was 0.11 μg 3-CPs/μg DNA × 10^-2. For the same compound, the “Molecules 3-CPs/μg DNA” value (yeast RNA; [7]) was 0.034 Molecules 3-CPs/μg DNA × 10^14, the “μg 3-CPs/μg DNA” value (yeast RNA; [7]) was 0.15 μg 3-CPs/μg DNA × 10^-2 and the “Molecules 3-CPs/μg DNA” value (yeast RNA; [8]) was 0.046 Molecules 3-CPs/μg DNA × 10^14. The “μg 3-CPs/μg DNA” value (yeast RNA; [8]) was 0.20 μg 3-CPs/μg DNA × 10^-2, the “Molecules 3-CPs/μg DNA” value (yeast RNA; [9]) was 0.053 Molecules 3-CPs/μg DNA × 10^14 and the “μg 3-CPs/μg DNA” value (yeast RNA; [9]) was 0.23 μg 3-CPs/μg DNA × 10^-2. For the same compound, the “Molecules 3-CPs/μg DNA” value (yeast RNA; [10]) was 0.058 Molecules 3-CPs/μg DNA × 10^14, the “μg 3-CPs/μg DNA” value (yeast RNA; [10]) was 0.25 μg 3-CPs/μg DNA × 10^-2 and the “dark binding with RNA relative to that at lowest dose of irradiation” value (yeast RNA; dark, 50 minutes) was 20%. For the same compound, the “365 nm light dose up to which binding with RNA increases linearly, then levels off” value (yeast RNA; in vivo) was “up to 25.2×10^3 J/m^2”, the “difference in photoreactivity with RNA, 3-CPs vs 8-MOP” value (yeast RNA; in vivo) was 3.4 factor and the “cpm/μg DNA” value (calf thymus DNA; 0-60 min incubation (dark)) was 0.21 cpm/μg DNA. The “μg 3-CPs/μg DNA” value (calf thymus DNA; 0-60 min incubation (dark)) was 0.009×10^-3 μg 3-CPs/μg DNA, the “cpm/μg DNA” value (calf thymus DNA; [11]) was 3.29 cpm/μg DNA and the “μg 3-CPs/μg DNA” value (calf thymus DNA; [11]) was 0.14×10^-3 μg 3-CPs/μg DNA. For the same compound, the “cpm/μg DNA” value (calf thymus DNA; [12]) was 4.25 cpm/μg DNA, the “μg 3-CPs/μg DNA” value (calf thymus DNA; [12]) was 0.18×10^-3 μg 3-CPs/μg DNA and the “cpm/μg DNA” value (calf thymus DNA; [13]) was 4.30 cpm/μg DNA. The “μg 3-CPs/μg DNA” value (calf thymus DNA; [13]) was 0.18×10^-3 μg 3-CPs/μg DNA, the “cpm/μg DNA” value (calf thymus DNA; [14]) was 3.10 cpm/μg DNA and the “μg 3-CPs/μg DNA” value (calf thymus DNA; [14]) was 0.13×10^-3 μg 3-CPs/μg DNA. The “dose of 365 nm light up to which binding increases rapidly” value (calf thymus DNA; in vitro) was “up to 3780 J/m^2”, the “difference in photoreactivity with DNA in vitro, 3-CPs vs 8-MOP” value (calf thymus DNA; in vitro (table 3)) was 4.8 factor and the “photoreactivity with native DNA, times lower than 8-MOP” value (calf thymus DNA; initial part of the photoreaction) was “about 5 times”. For the same compound, the “reassociation of DNA after heat denaturation” value (yeast DNA) was “such a reassociation was not found”, the “cross-links in DNA” value (yeast DNA; dose range used) was “does not induce cross-links in DNA; also recorded: absence of cross-link formation” and the “difference in survival response, 3-CPs vs 8-MOP” value (Saccharomyces cerevisiae [1]) was 6 factor. For the same compound, the “dose-modifying factor for rad9-4 compared to wild type” value (Saccharomyces cerevisiae [1]) was “constant”, the “photobiological activity after previous exposure to light” value (Saccharomyces cerevisiae [1]) was “decline in the photobiological activity” and the “resistance to the killing effect compared with 8-MOP” value (Saccharomyces cerevisiae [1]) was “much higher than that expected from the photoreactivity”. For the same compound, the “shape of survival curve” value (Saccharomyces cerevisiae [1]) was “exponential survival curve”, the “survival level compared with 8-MOP” value (Saccharomyces cerevisiae [1]) was “still relatively high as compared to that for 8-MOP” and the survivors (Saccharomyces cerevisiae [1]; saline, 5 min) was 10^-1. For the same compound, the “concentration versus 365 nm light dose, log-log plot at given survival” value (Saccharomyces cerevisiae [1]; wild type and rad9-4) was “follows a linear function”, the “reciprocity between light dose and drug concentration for cell killing” value (Saccharomyces cerevisiae [1]; wild type and rad9-4) was “no reciprocity between the light dose and the drug concentration” and the “induction of cytoplasmic "petite" mutations” value (Saccharomyces cerevisiae [2]) was “the most reactive compound”. The “dark repair by strain defective in excision” value (Saccharomyces cerevisiae [3]; agar holding) was “unable to perform a dark repair”, the “repair by strain defective in recombination” value (Saccharomyces cerevisiae [3]; agar holding) was “reduced capacity to repair” and the “interaction between rad2 and rad9 repair pathways” value (Saccharomyces cerevisiae [3]; plus 365 nm light) was “synergistic interaction”. For the same compound, the “kinetics of agar holding recovery (AHR)” value (Saccharomyces cerevisiae [3]; wild-type cells) was “same kinetics of AHR”.
